# Laboratory results as given in ChEMBL document CHEMBL5233269, “Anticancer potential of spirocompounds in medicinal chemistry: A pentennial expedition” (Eur J Med Chem, 2021).
# pIC50: −log10 of the molar value.
# Tests used:
# ECa-109 cell line = test: Cytotoxicity against human EC109 cells assessed as inhibition of tumor cell proliferation incubated for 72 hrs by MTT assay; format: functional, cell-based; settings: ECa-109, 72 h
# SMMC-7721 = test: Cytotoxicity against human SMMC-7721 cells assessed as inhibition of tumor cell proliferation incubated for 72 hrs by MTT assay; format: functional, cell-based; settings: SMMC-7721, 72 h
# A549 [1] = test: Cytotoxicity against human A549 cells assessed as inhibition of tumor cell proliferation incubated for 72 hrs by MTT assay; format: functional, cell-based; settings: A549, 72 h
# MGC-803 = test: Cytotoxicity against human MGC-803 cells assessed as inhibition of tumor cell proliferation incubated for 72 hrs by MTT assay; format: functional, cell-based; settings: MGC-803, 72 h
# MCF7 [2] = test: Antiproliferative activity against human MCF7 cells by MTT assay; format: functional, cell-based
# MDA-MB-231 [3] = test: Antiproliferative activity against human MDA-MB-231 cells assessed as inhibition of cell viability by MTT assay; format: functional, cell-based
# MCF7 [4] = test: Anticancer activity against human MCF7 cells incubated for 48 hrs by MTT assay; format: functional, cell-based; settings: MCF7, 48 h
# A549 [5] = test: Anticancer activity against human A549 cells incubated for 48 hrs by MTT assay; format: functional, cell-based; settings: A549, 48 h
# HepG2 [6] = test: Anticancer activity against human HepG2 cells incubated for 48 hrs by MTT assay; format: functional, cell-based; settings: HepG2, 48 h
# HCT-116 [7] = test: Anticancer activity against human HCT-116 cells incubated for 48 hrs by MTT assay; format: functional, cell-based; settings: HCT-116, 48 h
# [8] = Anticancer activity against human U87 cells incubated for 48 hrs by MTT assay; format: functional, cell-based, U-87MG ATCC; settings: U-87 MG
# [9] = Cytotoxicity against green monkey Vero cells; format: toxicity, cell-based; settings: green monkey (Chlorocebus sabaeus)
# HeLa [10] = test: Cytotoxicity against human HeLa cells; format: functional, cell-based
# [11] = target: cGMP-specific 3',5'-cyclic phosphodiesterase (Homo sapiens) (UniProt O76074); test: Inhibition of PDE5 (unknown origin) at 3 nM relative to control
# Caco-2 = test: Antiproliferative activity against human Caco-2 cells incubated for 72 hrs by MTT assay; format: functional, cell-based; settings: Caco-2, 72 h
# HCT-116 [12] = test: Antiproliferative activity against human HCT-116 cells incubated for 72 hrs by MTT assay; format: functional, cell-based; settings: HCT-116, 72 h
# Jurkat = test: Antiproliferative activity against human Jurkat cells incubated for 72 hrs by MTT assay; format: functional, cell-based
# MCF7 [13] = test: Antiproliferative activity against human MCF7 cells incubated for 72 hrs by MTT assay; format: functional, cell-based; settings: MCF7, 72 h
# MDA-MB-231 [14] = test: Antiproliferative activity against human MDA-MB-231 cells incubated for 72 hrs by MTT assay; format: functional, cell-based; settings: MDA-MB-231, 72 h
# HeLa [15] = test: Antiproliferative activity against human HeLa cells incubated for 72 hrs by MTT assay; format: functional, cell-based
# CCRF-CEM = test: Antiproliferative activity against human CEM cells incubated for 72 hrs by MTT assay; format: functional, cell-based
# A549 [16] = test: Antiproliferative activity against human A549 cells incubated for 72 hrs by MTT assay; format: functional, cell-based; settings: A549, 72 h
# MCF7 [17] = test: Antiproliferative activity against human MCF7 cells assessed as cell growth inhibition; format: functional, cell-based
# MDA-MB-231 [18] = test: Antiproliferative activity against human MDA-MB-231 cells assessed as cell growth inhibition; format: functional, cell-based
# A-375 [19] = test: Cytotoxicity against human A-375 cells at 10 ug/ml incubated for 24 hrs by MTT assay; format: functional; settings: dose 10 µg/ml
# A-375 [20] = test: Cytotoxicity against human A-375 cells at 100 ug/ml incubated for 24 hrs by MTT assay; format: functional; settings: dose 100 µg/ml
# K562 = test: Antiproliferative activity against human K562 cells measured upto 72 hrs by microscopy based analysis; format: functional, cell-based; settings: K562, 72 h
# U-937 = test: Antiproliferative activity against human U-937 cells measured upto 72 hrs by microscopy based analysis; format: functional, cell-based; settings: U-937, 72 h
# MCF7 [21] = test: Anticancer activity against human MCF7 cells assessed as reduction in cell viability; format: functional, cell-based
# HepG2 [22] = test: Anticancer activity against human HepG2 cells assessed as reduction in cell viability; format: functional, cell-based
# MDA-MB-231 [23] = test: Antiproliferative activity against human MDA-MB-231 cells; format: functional, cell-based
# HeLa [24] = test: Antiproliferative activity against human HeLa cells; format: functional, cell-based
# A549 [25] = test: Antiproliferative activity against human A549 cells assessed as reduction in cell viability; format: functional, cell-based
# MCF7 [26] = test: Antiproliferative activity against human MCF7 cells assessed as reduction in cell viability; format: functional, cell-based
# HepG2 [27] = test: Antiproliferative activity against human HepG2 cells incubated for 2 days by MTT assay; format: functional, cell-based; settings: HepG2, 48 h
# MCF7 [28] = test: Antiproliferative activity against human MCF7 cells incubated for 2 days by MTT assay; format: functional, cell-based; settings: MCF7, 48 h
# HT-29 = test: Antiproliferative activity against human HT-29 cells incubated for 2 days by MTT assay; format: functional, cell-based; settings: HT-29, 48 h
# T47D = test: Antiproliferative activity against human T47D cells incubated for 2 days by MTT assay; format: functional, cell-based; settings: 48 h
# HFF = test: Antiproliferative activity against human HFF cells incubated for 2 days by MTT assay; format: functional, cell-based; settings: 48 h
# PC-3 = test: Anticancer activity against human PC-3 cells at 100 uM relative to control; format: functional
# LNCaP = test: Anticancer activity against human LNCaP cells at 100 uM relative to control; format: functional
# B16-F10 = test: Anticancer activity against mouse B16-F10 cells; format: functional, cell-based
# HeLa [29] = test: Anticancer activity against human HeLa cells assessed as inhibition of cell proliferation; format: functional, cell-based
# [30] = Anticancer activity against human Panel (56 tumour cell lines) at 10 uM relative to control; format: functional
compound,measurement,setting,value
C[C@]12CC[C@H](O)CC1=CCC1C2CC[C@@]2(C)C1CC[C@@H]2C1=CC2(C(=O)Nc3c(Cl)cccc32)C(C#N)=C(N)N1 (some centres not stated),pIC50,ECa-109 cell line,5.19
same,pIC50,SMMC-7721,4.53
same,pIC50,A549 [1],4.48
same,pIC50,MGC-803,4.76
Clc1cccc(Cl)c1C1=NO[C@@]2(CCCCO2)[C@H]1Br,pIC50,MCF7 [2],4.28
same,pIC50,MDA-MB-231 [3],4.37
CCOC(=O)[C@H]1[C@@H](NO)[C@@H]2c3ccccc3OC(C)(C)[C@H]2[C@H](O)[C@]12C(=O)Nc1ccc(Cl)cc12,pIC50,MCF7 [4],5.77
same,pIC50,A549 [5],5.23
same,pIC50,HepG2 [6],4.74
same,pIC50,HCT-116 [7],4.89
same,pIC50,[8],4.43
O=C(c1ccccn1)[C@@H]1[C@@H](c2ccc(Cl)cc2Cl)[C@H](c2ccccc2)NC12C(=O)Nc1ccccc12 (some centres not stated),IC50,[9],17 µg/mL
same,IC50,HeLa [10],16 µg/mL
O=C1NC2(CCCCC2)Nc2ccccc21,inhibition,[11],100%
CON1c2ccccc2[C@@]2(CN=C(Nc3cc(C(F)(F)F)cc(C(F)(F)F)c3)S2)[C@@H]1Nc1cc(C(F)(F)F)cc(C(F)(F)F)c1,pIC50,Caco-2,4.33
same,pIC50,HCT-116 [12],4.19
same,pIC50,Jurkat,5.70
same,pIC50,MCF7 [13],5.70
same,pIC50,MDA-MB-231 [14],5.40
same,pIC50,HeLa [15],5.52
same,pIC50,CCRF-CEM,5.30
same,pIC50,A549 [16],5.70
O=C1N(c2ccccc2)C(=O)C2(CC(c3ccccc3O)=NO2)N1C1CCCCC1 (configuration not stated),pIC50,MCF7 [17],4.37
same,pIC50,MDA-MB-231 [18],4.17
CN1CC(n2ccc3ccccc32)C(C#N)(C#N)C12C(=O)N(Cc1ccccc1)c1ccccc12 (configuration not stated),Activity,A-375 [19],97.29%
same,Activity,A-375 [20],95.86%
CC1=CC(=O)C2(C(=O)O1)C(c1ccc(C(C)(C)C)cc1)CC(=O)CC2c1ccc(C(C)(C)C)cc1 (configuration not stated),pIC50,K562,4.23
same,pIC50,U-937,4.36
O=C(c1ccccn1)[C@@H]1[C@@H](c2ccccc2Cl)[C@H](c2ccccc2)NC12C(=O)Nc1ccccc12 (some centres not stated),IC50,[9],> 110 µg/mL
same,IC50,HeLa [10],70 µg/mL
N#Cc1c(-c2ccc(Cl)cc2)c2c(n(CC(=O)O)c1=O)N(c1ccc(N)cc1)C1(CCCCC1)S2,IC50,MCF7 [21],12.6 µg/mL
same,IC50,HepG2 [22],9.29 µg/mL
O=C1C=CC2(C=C1Br)OCC(=O)N2c1nc(-c2cccc(Cl)c2)nn1-c1ccccc1 (configuration not stated),pIC50,MDA-MB-231 [23],9.10
same,pIC50,HeLa [24],7.34
same,pIC50,A549 [25],7.60
same,pIC50,MCF7 [26],8.39
COc1cc(C2=NOC3(Cc4ccccc4C3=O)C2c2ccc(S(C)(=O)=O)cc2)cc(OC)c1OC (configuration not stated),pIC50,HepG2 [27],7.07
same,pIC50,MCF7 [28],4.62
same,pIC50,HT-29,4.16
same,pIC50,T47D,7.15
same,pIC50,HFF,5.63
Cc1ccccc1/C=C/C(=O)c1ccc(OP2(Oc3ccc(C(=O)/C=C/c4ccccc4)cc3)=NP3(=NP4(=N2)Oc2ccccc2-c2ccccc2O4)Oc2ccccc2-c2ccccc2O3)cc1 (configuration not stated),Activity,PC-3,42.36%
same,Activity,LNCaP,69.04%
N#Cc1c(N)nc2c(c1-c1ccc(Cl)cc1)SC1(CCCCC1)N2c1ccc(N)cc1,IC50,MCF7 [21],30 µg/mL
same,IC50,HepG2 [22],14.3 µg/mL
CN1C(=O)N(C)C(=O)C2(CC3(C(=O)c4ccccc4C3=O)N(C)[C@H]2c2ccccc2)C1=O,pIC50,B16-F10,5.46
same,pIC50,HeLa [29],5.37
CN1C(=O)N(C)C(=O)C2(CC3(C(=O)c4ccccc4C3=O)N(C)[C@H]2c2ccc(Br)cc2)C1=O,pIC50,B16-F10,5.28
same,pIC50,HeLa [29],5.14
O=C(/C=C/c1cccc(F)c1)c1ccc(OP2(Oc3ccc(C(=O)/C=C/c4cccc(F)c4)cc3)=NP3(=NP4(=N2)Oc2ccccc2-c2ccccc2O4)Oc2ccccc2-c2ccccc2O3)cc1,Activity,PC-3,43.71%
same,Activity,LNCaP,63.78%
CON1c2ccccc2[C@@]2(CN=C(Nc3cc(C(F)(F)F)cc(C(F)(F)F)c3)S2)[C@H]1Nc1cc(C(F)(F)F)cc(C(F)(F)F)c1,pIC50,Caco-2,4.71
same,pIC50,HCT-116 [12],4.36
same,pIC50,Jurkat,5.70
same,pIC50,MCF7 [13],5.70
same,pIC50,MDA-MB-231 [14],5.46
same,pIC50,HeLa [15],5.60
same,pIC50,CCRF-CEM,6.00
same,pIC50,A549 [16],5.60
O=C(/C=C/c1ccc(F)cc1)c1ccc(OP2(Oc3ccc(C(=O)/C=C/c4ccc(F)cc4)cc3)=NP3(=NP4(=N2)Oc2ccccc2-c2ccccc2O4)Oc2ccccc2-c2ccccc2O3)cc1,Activity,PC-3,35.93%
same,Activity,LNCaP,57.66%
O=C1NC2(CCNCC2)Nc2ccccc21,inhibition at 10 µM,[30],100%
